From PMC7913524, “Novel Biphenyl Amines Inhibit Oestrogen Receptor (ER)-α in ER-Positive Mammary Carcinoma Cells” (Molecules, 2021)
Where two headings read alike, the source gives them in different places.

Legend:
ERα = target: T1, ERα (Homo sapiens, UniProt P03372); assay: ER-alpha competitive binding assay (PolarScreen ER Alpha Competitor, fluorescence polarization); details: read-out: CBA IC50 + SD (competitive binding affinity)
T1 construct: purchased Life Technologies
T1 sequence (P03372 1-595): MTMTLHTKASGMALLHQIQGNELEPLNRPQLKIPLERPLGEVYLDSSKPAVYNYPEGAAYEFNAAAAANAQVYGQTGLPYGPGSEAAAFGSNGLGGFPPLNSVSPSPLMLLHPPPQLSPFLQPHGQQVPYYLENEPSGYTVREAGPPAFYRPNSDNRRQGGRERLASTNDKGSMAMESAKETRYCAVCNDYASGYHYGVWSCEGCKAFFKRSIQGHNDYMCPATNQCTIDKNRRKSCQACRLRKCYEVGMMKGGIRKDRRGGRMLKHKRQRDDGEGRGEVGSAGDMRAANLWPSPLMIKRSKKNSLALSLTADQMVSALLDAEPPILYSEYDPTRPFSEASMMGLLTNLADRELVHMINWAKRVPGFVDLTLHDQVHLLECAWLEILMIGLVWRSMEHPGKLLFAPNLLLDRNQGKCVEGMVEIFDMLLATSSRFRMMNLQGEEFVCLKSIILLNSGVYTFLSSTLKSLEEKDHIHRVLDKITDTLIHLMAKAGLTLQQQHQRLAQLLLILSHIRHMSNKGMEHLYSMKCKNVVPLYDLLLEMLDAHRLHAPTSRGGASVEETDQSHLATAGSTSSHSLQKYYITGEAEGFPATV
Description: First, to rank the novel biphenyl derivatives based on binding affinity to ERα, a commercially available fluorescence polarization assay kit (PolarScreen™ ER Alpha Competitor assay) was utilized. […] The smaller size of the free molecule can be discerned by increased mobility in the solution, which is detected by fluorescence polarization (FP). A shift in the FP value in the presence of the test compounds is used to determine the relative affinity of test compounds for ERα.
The assay was performed as per the manufacturer’s instructions. The Fluorescence polarization value (mP) of each well on a fluorescence polarization plate was measured using fluorescence polarization Tecan infinite M1000PRO multimode microplate reader (Tecan, Switzerland). Data were modelled using GraphPad Prism® software from GraphPad Software, Inc..

MCF7 cells = assay: AlamarBlue cell viability assay, MCF7; type: cell-based, human; details: read-out: Cell Viability (MCF7 Cells) IC50 ± SD
Description: (§1) Next, we determined the potential functional effects of novel ATBA compounds on the viability of MCF7 cells using an AlamarBlue® cell viability assay. […] We also determined the functional efficacy of the 4c compound in additional ER+ MC cell lines using an AlamarBlue® cell viability assay.
The human Michigan Cancer Foundation-7 (MCF7) cell line was obtained from the American Type Culture Collection (ATCC, Rockville, Gaithersburg, MD, USA) and was cultured as per ATCC propagation instructions.
(§2) AlamarBlue®, 3D Matrigel, and luciferase assay: AlamarBlue® cell viability kits were obtained from ThemoFisher Scientific (Waltham, Massachusetts, USA), and the assay was performed as previously described. 3D Matrigel assays were performed as previously described. Luciferase assays were performed as previously described. Briefly, transfections were carried out in triplicate using 1 μg of the appropriate luciferase reporter construct or empty vector along with 0.1 μg of Renilla luciferase construct as a control for transfection efficiency. Luciferase activities were measured using the Dual-Luciferase Assay System (Promega Corp, Madison, WI, USA).

[1] = test system: MCF7 cell-generated spheroids; assay: 3D Matrigel spheroid cell viability; type: cell-based, human; details: preformed MCF7 spheroids in 3D Matrigel, 5 µM, 72 h
Description: Furthermore, we examined the effect of the novel biphenyl derivatives on preformed spheroids generated using MC cells in 3D Matrigel (Figure 2).
as §2
Figure 2 Cell viability of MCF7 cell-generated spheroids after culture in 3D Matrigel for 10 days. Preformed MCF7 cell-generated spheroids were treated with compounds for 72 h before assessing cell viability. A concentration of 5 µM was used for the treatment. The cell viability of the MCF7 cell-generated spheroids was evaluated using an AlamarBlue® viability assay as described in the Materials and Methods section. Bars are the mean of triplicate experiments; bars, ±SD. ** P < 0.001, * P < 0.05.

[2] = test system: oestrogen response element (ERE) transcriptional activity (ERα); assay: ERE-luc luciferase reporter assay in MCF7 cells; type: cell-based, human; details: for antagonist activity against ERα (luciferase activity): MCF7 cells, with E2 10^-8 M, compounds 10^-10 to 10^-4 M
Description: as §2, with “Next, to evaluate the activity of the synthesized compounds as agonists or antagonists to ERα, a reporter assay was performed with ERE-luc. […] AlamarBlue®,” for “AlamarBlue®,”, “USA). […] (lower panel). MCF7 cells were co-transfected with ERE-luc (firefly luciferase) and Renilla luciferase constructs as described in the Materials and Methods section. […] Results are shown as mean (+SD for triplicate transfection).” for “USA).”

T47D cells = assay: AlamarBlue cell viability assay, T47D; type: cell-based; details: Homo sapiens
Description: as §1, §2

BT474 cells = assay: AlamarBlue cell viability assay, BT474; type: cell-based; details: Homo sapiens, BT-474
Description: as §1, §2

MDA-MB-361 cells = assay: AlamarBlue cell viability assay, MDA-MB-361; type: cell-based; details: Homo sapiens
Description: as §1, §2

CCND1 protein expression = assay: Western blot of CCND1 in MCF7 cells; type: cell-based, human
Description: Increased expression of CCND1 is associated with approximately 50% of breast cancer cases and directly regulated by ER signalling. To determine functional effects downstream of ERα, we examined the effect of ATBA compounds on hCCND1 protein expression in MC cells. […] Western blot analysis: Western blot analysis was performed as previously described, using a primary monoclonal antibody against CCND1 and β-ACTIN obtained from Cell Signalling, Danvers, Massachusetts, USA. Quantification of blot was performed by use of ImageJ software from NIH, USA (http://imagej.nih.gov/ij/) as described previously. […] Soluble whole-cell extracts were run on an SDS-PAGE and immunoblotted. β-ACTIN was used as input control for cell lysate (left side). The predicted sizes of detected protein bands in kDa are shown on the left side. The average of three independent densitometry analyses of CCND1 and β-ACTIN is shown above (right side) by use of Image J software from NIH, USA (http://imagej.nih.gov/ij/) as described previously.

[3] = vNN-ADMET prediction: MRTD; details: relative to TAM

| IC50 (ERα) | IC50 (MCF7 cells; Homo sapiens, MCF7, AlamarBlue) | IC50 (MCF7 cells; AlamarBlue) | Compound | cell viability of spheroids compared to vehicle (DMSO) [1] | antagonist activity against ERα (luciferase activity) [2] | further results |
| --- | --- | --- | --- | --- | --- | --- |
| 0.0985 µM | 12.3 ± 3.77 µM |  | COc1ccc(Nc2ccc(C)cc2)cc1C12CC3CC(CC(C3)C1)C2 [4f, 3-(Adamantan-1-yl)-4-methoxy-N-(p-tolyl) aniline] | significantly decreased cell viability | most potent antagonist activity against ERα in a dosage-dependent manner |  |
| 0.0628 µM | 6.4 µM | 6.29 ± 2.41 µM | COc1ccc(Nc2ccc(C(F)(F)F)cc2)cc1C12CC3CC(CC(C3)C1)C2 [4c, 3-(Adamantan-1-yl)-4-methoxy-N-(4-(trifluoromethyl)phenyl) aniline] | significantly decreased cell viability | most potent antagonist activity against ERα in a dosage-dependent manner | IC50 (T47D cells): 7.38 µM; IC50 (BT474 cells): 6.36 µM; IC50 (MDA-MB-361 cells): 8.31 µM; inhibitory effect on spheroids compared to TAM-treated spheroids [1]: significant inhibitory effect compared to TAM-treated MC cell-generated spheroids; inhibitory effect on spheroids compared to TAM-treated spheroids ([1]; listed as AMTA): superior inhibitory effect compared to tamoxifen-treated MC cell spheroids; IC50 ([2]; Homo sapiens, MCF7): 0.83 ± 0.06 µM; antagonist activity against ERα (luciferase activity) ([2]; listed as AMTA): significantly deceased ERE transcriptional activity; CCND1 protein levels (CCND1 protein expression): most potently decreased the protein levels of CCND1 in MC cells in the nanomolar range; CCND1 protein levels (CCND1 protein expression; listed as AMTA): significantly decreased protein levels of oestrogen-regulated CCND1 in a dose-dependent manner; predicted maximum recommended therapeutic dose compared to TAM [3]: approximately four times higher |
| 0.189 µM | ~50 µM | 42.2 ± 9.31 µM | COc1ccc(Nc2ccc(C)cn2)cc1C12CC3CC(CC(C3)C1)C2 [4h] |  |  |  |
| 0.0826 µM | 8.81 ± 1.85 µM |  | COc1ccc(Nc2cccc(O)c2)cc1C12CC3CC(CC(C3)C1)C2 [4d, 3-((3-(Adamantan-1-yl)-4-methoxyphenyl)amino) phenol] | significantly decreased cell viability | most potent antagonist activity against ERα in a dosage-dependent manner |  |
| 0.129 µM | 12.1 ± 3.07 µM |  | COc1ccc(Nc2cccnc2)cc1C12CC3CC(CC(C3)C1)C2 [4g] | significantly decreased cell viability | most potent antagonist activity against ERα in a dosage-dependent manner |  |
| 0.34 µM | > 50 µM |  | COc1ccc(Nc2ccc(Cl)cc2)cc1C12CC3CC(CC(C3)C1)C2 [4a, 3-(Adamantan-1-yl)-N-(4-chlorophenyl)-4-methoxyaniline] |  |  |  |
| 0.202 µM | > 50 µM |  | COc1ccc(Nc2ccc(OC)c(C34CC5CC(CC(C5)C3)C4)c2)cc1 [4b, 3-(Adamantan-1-yl)-4-methoxy-N-(4-methoxyphenyl) aniline] |  |  |  |
| 0.264 µM | ~50 µM | 47.6 ± 7.48 µM | COc1ccc(Nc2cccc3ccccc23)cc1C12CC3CC(CC(C3)C1)C2 [4i] |  |  |  |
